Like-named read-outs stand apart in the source and are kept apart here.
Tests used:
[1] = tested on: MCF-7 human breast cancer cells; test: cells; type: cell-based;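 note: IC50 values, including those behind the selectivity ratio, derive from formazan absorbance at 570 nm, tested in triplicate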
[2] = tested on: MCF-10A non-tumor mammary epithelial cell line; test: in vitro; type: cell-based, human
[3] = tested on: T-47D human breast cancer cells; test: cells; type: cell-based; details: for Selectivity Index (SI), T-47D: ratio of IC50 for healthy (MCF-10A) and T-47D cells;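 for all read-outs here: cell viability read as absorbance of formazan dye at 570 nm, each experiment run in triplicate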
[4] = tested on: MDA-MB-231 triple-negative breast cancer cells; test: cells; type: cell-based, human; details: for Selectivity Index (SI), MDA-MB-231: ratio of IC50 for healthy (MCF-10A) and MDA-MB-231 cells
human erythrocytes = test: Hemolytic activity against human erythrocytes; type: cell-based; details: for ED50, Erythrocytes (hemolytic activity): 1 h at 37 °C
Protocol: A total of 450 g of human blood (B(III) Rh+) was used to obtain erythrocytes by centrifuging three times for 5 min with phosphate-buffered saline (PBS) (pH 7.4) at 4 °C on a centrifuge LABOFUGE 400R (Heraeus, Hanau, Germany). Ice-cold PBS (pH 7.4) was used for resuspension of erythrocyte residue to a final optical density of 1.5 at 700 nm. Then, 20 µL of tested compound solutions or control (cucumarioside A0-1 [15]) were added to 180 µL of erythrocyte suspension in V-bottom 96-well plates and incubated for 1 h at 37 °C. After centrifugation (900 g, 10 min, laboratory centrifuge LMC-3000 (Biosan, Riga, Latvia)), 100 µL of supernatant was transferred into new flat plates. The values of erythrocyte lysis were measured on microplate photometer Multiskan FC (Thermo Fisher Scientific, Waltham, MA, USA) at λ = 570 nm as hemoglobin concentration in supernatant. […] All the experiments were carried out in triple repetitions, p < 0.05.

[5] = MTT assay, MCF-7, read-out: Cytotoxicity, IC50, MCF-7
[6] = MTT assay, MCF-10A, read-out: Cytotoxicity, IC50, MCF-10A
[7] = MTT assay, T-47D, read-out: Cytotoxicity, IC50, T-47D
[8] = MTT assay, MDA-MB-231, read-out: Cytotoxicity, IC50, MDA-MB-231

Row | SMILES | ED50, Erythrocytes (hemolytic activity) (human erythrocytes) [µM] | IC50 [1, 5] [µM] | IC50 [2, 6] [µM] | IC50 [3, 7] [µM] | IC50 [4, 8] [µM] | Hemolytic (membranolytic) activity, in words (human erythrocytes) | further results
1 | CO[C@@H]1[C@@H](O)[C@H](O[C@@H]2[C@@H](O)[C@H](O[C@H]3[C@H](O)[C@@H](O)[C@H](O[C@H]4[C@H](O[C@H]5CC[C@]6(C)C7=CCC89C(=O)O[C@@](C)([C@@H](CCC(C)C)OC(C)=O)[C@H]8[C@@H](OC(C)=O)C[C@@]9(C)[C@@H]7CC[C@H]6C5(C)C)OC[C@@H](O)[C@@H]4O)O[C@@H]3C)OC[C@H]2O)O[C@H](CO)[C@H]1O (some centres unmarked) [A1 (5)] | 6.17 ± 0.51 | – | – | – | – | – | IC50 [1]: > 20 µM; IC50 [2]: > 20 µM; IC50 [3]: > 20 µM; IC50 [4]: > 20 µM
2 | C=C(C)CC[C@@H](OC(C)=O)[C@]1(C)OC(=O)C23CC=C4[C@@H](CC[C@H]5C(C)(C)[C@@H](O[C@@H]6OC[C@@H](O)[C@H](O)[C@H]6O[C@@H]6O[C@H](C)[C@@H](O[C@@H]7OC[C@@H](O)[C@H](O[C@@H]8O[C@H](CO)[C@@H](O)[C@H](OC)[C@H]8O)[C@H]7O)[C@H](O)[C@H]6O)CC[C@]45C)[C@]2(C)C[C@H](OC(C)=O)[C@@H]31 (some centres unmarked) [A2 (6), cladoloside A2] | 2.78 ± 0.32 | > 20 | > 20 | > 20 | > 20 | moderate activity | –
3 | C=C(C)CCC[C@]1(C)OC(=O)C23CC=C4[C@@H](CC[C@H]5C(C)(C)[C@@H](O[C@@H]6OC[C@@H](O)[C@H](O)[C@H]6O[C@@H]6O[C@H](C)[C@@H](O[C@@H]7OC[C@@H](O)[C@H](O[C@@H]8O[C@H](CO)[C@@H](O)[C@H](OC)[C@H]8O)[C@H]7O)[C@H](O)[C@H]6O)CC[C@]45C)[C@]2(C)C[C@H](OC(C)=O)[C@@H]31 (some centres unmarked) [A3 (7), cladoloside A3] | 7.58 ± 0.69 | > 20 | > 20 | > 20 | > 20 | low hemolytic activity | ED50, Erythrocytes (hemolytic activity) (human erythrocytes; listed as cladoloside A3 (7)): 7.58 µM
4 | CO[C@@H]1[C@@H](O)[C@H](O[C@@H]2[C@@H](O)[C@H](O[C@H]3[C@H](O)[C@@H](O)[C@H](O[C@H]4[C@H](O[C@H]5CC[C@]6(C)C7=CCC89C(=O)O[C@@](C)(CCC=C(C)C)[C@H]8C(=O)C[C@@]9(C)[C@@H]7CC[C@H]6C5(C)C)OC[C@@H](O)[C@@H]4O)O[C@@H]3C)OC[C@H]2O)O[C@H](CO)[C@H]1O (some centres unmarked) [A4 (8), cladoloside A4] | 13.60 ± 0.70 | > 20 | > 20 | > 20 | > 20 | weakest effect from the series | –
5 | COC1C(O)C(CO)OC(OC2C(O)COC(OC3C(C)OC(OC4C(OC5CCC6(C)C7=CCC89C(=O)OC(C)(CC=CC(C)(C)O)C8C(=O)CC9(C)C7CCC6C5(C)C)OCC(O)C4O)C(O)C3O)C2O)C1O (centres unmarked) [A5 (9), cladoloside A5] | 7.19 ± 0.53 | > 20 | > 20 | > 20 | > 20 | – | ED50, Erythrocytes (hemolytic activity) (human erythrocytes; listed as cladoloside A5 (9)): 7.19 µM
6 | C=C(C)CC[C@@H](OC(C)=O)[C@]1(C)OC(=O)C23CC=C4[C@@H](CC[C@H]5C(C)(C)[C@@H](O[C@@H]6OC[C@@H](O)[C@H](O)[C@H]6O[C@@H]6O[C@H](C)[C@@H](O[C@@H]7O[C@H](CO)[C@@H](O)[C@H](O[C@@H]8O[C@H](CO)[C@@H](O)[C@H](OC)[C@H]8O)[C@H]7O)[C@H](O)[C@H]6O)CC[C@]45C)[C@]2(C)C[C@H](OC(C)=O)[C@@H]31 (some centres unmarked) [A6 (10), cladoloside A6] | 3.43 ± 0.22 | > 20 | > 20 | > 20 | > 20 | – | –
7 | C=C(C)CC[C@@H](OC(C)=O)[C@]1(C)OC(=O)C23CC=C4[C@@H](CC[C@H]5C(C)(C)[C@@H](O[C@@H]6OC[C@@H](O[C@@H]7O[C@H](CO)[C@@H](O)[C@H](O[C@@H]8O[C@H](CO)[C@@H](O)[C@H](OC)[C@H]8O)[C@H]7O)[C@H](O)[C@H]6O[C@@H]6O[C@H](C)[C@@H](O[C@@H]7OC[C@@H](O)[C@H](O[C@@H]8O[C@H](CO)[C@@H](O)[C@H](OC)[C@H]8O)[C@H]7O)[C@H](O)[C@H]6O)CC[C@]45C)[C@]2(C)C[C@H](O)[C@@H]31 (some centres unmarked) [C3 (16), cladoloside C3] | 12.10 ± 0.58 | – | – | – | – | – | IC50 [1]: > 20 µM; IC50 [2]: > 20 µM; IC50 [3]: > 20 µM; IC50 [4]: > 20 µM; ED50, Erythrocytes (hemolytic activity) (human erythrocytes; listed as cladoloside C3 (16)): 12.10 µM
8 | CO[C@@H]1[C@@H](O)[C@H](O[C@@H]2[C@@H](O)[C@H](O[C@H]3[C@H](O)[C@@H](O)[C@H](O[C@H]4[C@H](O[C@H]5CC[C@]6(C)C7=CCC89C(=O)O[C@@](C)([C@@H](CCC(C)C)OC(C)=O)[C@H]8[C@@H](OC(C)=O)C[C@@]9(C)[C@@H]7CC[C@H]6C5(C)C)OC[C@@H](O[C@@H]5O[C@H](CO)[C@@H](O)[C@H](O)[C@H]5O)[C@@H]4O)O[C@@H]3C)OC[C@H]2O)O[C@H](CO)[C@H]1O (some centres unmarked) [Cladoloside B1 (11), cladoloside B1] | – | > 20 | > 20 | 13 ± 1.07 | 10.1 ± 1 | – | Selectivity Index (SI), T-47D [3]: >1.54; Selectivity Index (SI), MDA-MB-231 [4]: >1.98; ED50, Erythrocytes (hemolytic activity) (human erythrocytes; listed as B1 (11)): 0.55 ± 0.04 µM; ED50, Erythrocytes (hemolytic activity) (human erythrocytes; listed as cladoloside B1 (11)): 0.55 µM
9 | C=C(C)CC[C@@H](OC(C)=O)[C@]1(C)OC(=O)C23CC=C4[C@@H](CC[C@H]5C(C)(C)[C@@H](O[C@@H]6OC[C@@H](O[C@@H]7O[C@H](CO)[C@@H](O)[C@H](O)[C@H]7O)[C@H](O)[C@H]6O[C@@H]6O[C@H](C)[C@@H](O[C@@H]7OC[C@@H](O)[C@H](O[C@@H]8O[C@H](CO)[C@@H](O)[C@H](OC)[C@H]8O)[C@H]7O)[C@H](O)[C@H]6O)CC[C@]45C)[C@]2(C)C[C@H](OC(C)=O)[C@@H]31 (some centres unmarked) [Cladoloside B2 (12), cladoloside B2] | – | 14.5 ± 0.48 | 12.2 ± 1.2 | 12.5 ± 0.96 | 3.92 ± 0.35 | high activity | Selectivity Index (SI), MCF-7 ([1]; ratio of IC50 for healthy (MCF-10A) and MCF-7 cells): 0.84; Selectivity Index (SI), T-47D [3]: 0.98; Selectivity Index (SI), MDA-MB-231 [4]: 3.12; ED50, Erythrocytes (hemolytic activity) (human erythrocytes; listed as B2 (12)): 0.31 ± 0.02 µM; ED50, Erythrocytes (hemolytic activity) (human erythrocytes; listed as cladoloside B2 (12)): 0.31 µM
10 | CO[C@@H]1[C@@H](O)[C@H](O[C@@H]2[C@@H](O)[C@H](O[C@@H]3CO[C@@H](O[C@H]4CC[C@]5(C)C6=CCC78C(=O)O[C@@](C)([C@@H](CCC(C)C)OC(C)=O)[C@H]7[C@@H](OC(C)=O)C[C@@]8(C)[C@@H]6CC[C@H]5C4(C)C)[C@H](O[C@@H]4O[C@H](C)[C@@H](O[C@@H]5OC[C@@H](O)[C@H](O[C@@H]6O[C@H](CO)[C@@H](O)[C@H](OC)[C@H]6O)[C@H]5O)[C@H](O)[C@H]4O)[C@H]3O)O[C@H](CO)[C@H]2O)O[C@H](CO)[C@H]1O (some centres unmarked) [Cladoloside C1 (14), cladoloside C1] | – | > 20 | > 20 | > 20 | 15.3 ± 0.71 | – | ED50, Erythrocytes (hemolytic activity) (human erythrocytes; listed as C1 (14)): 0.15 ± 0.02 µM; ED50, Erythrocytes (hemolytic activity) (human erythrocytes; listed as cladoloside C1 (14)): 0.15 µM

From publication PMC12299463, “Cladolosides of Groups S and T: Triterpene Glycosides from the Sea Cucumber Cladolabes schmeltzii with Unique Sulfation; Human Breast Cancer Cytotoxicity and QSAR” (Marine Drugs, 2025)
